In brackets after ≈: the same amount, converted by molar mass.
Legend:
Assay type in all cases: functional
Escherichia coli [1] = experiment: Antimicrobial activity against Escherichia coli J53
Escherichia coli [2] = experiment: Antimicrobial activity against Escherichia coli J53 harboring pEK499 plasmid encoding CTX-M extended-spectrum beta-lactamases
Escherichia coli [3] = experiment: Antimicrobial activity against Escherichia coli J53 harboring pEK204 plasmid encoding CTX-M extended-spectrum beta-lactamases
Escherichia coli [4] = experiment: Antimicrobial activity against Escherichia coli DH5[alpha]
Escherichia coli [5] = experiment: Antimicrobial activity against Escherichia coli DH5[alpha] harboring pEK516 plasmid encoding CTX-M extended-spectrum beta-lactamases
Escherichia coli [6] = experiment: Antimicrobial activity against Escherichia coli J53 in presence of beta-lactamase inhibitor clavulanic acid
Escherichia coli [7] = experiment: Antimicrobial activity against Escherichia coli DH5[alpha] in presence of beta-lactamase inhibitor clavulanic acid
Escherichia coli [8] = experiment: Antimicrobial activity against Escherichia coli J53 harboring pEK499 plasmid encoding CTX-M extended-spectrum beta-lactamases in presence of beta-lactamase inhibitor clavulanic acid
Escherichia coli [9] = experiment: Antimicrobial activity against Escherichia coli J53 harboring pEK204 plasmid encoding CTX-M extended-spectrum beta-lactamases in presence of beta-lactamase inhibitor clavulanic acid
Escherichia coli [10] = experiment: Antimicrobial activity against Escherichia coli DH5[alpha] harboring pEK516 plasmid encoding CTX-M extended-spectrum beta-lactamases in presence of beta-lactamase inhibitor clavulanic acid
Escherichia coli [11] = experiment: Antimicrobial activity against Escherichia coli J53 in presence of beta-lactamase inhibitor Tazobactam
Escherichia coli [12] = experiment: Antimicrobial activity against Escherichia coli J53 harboring pEK499 plasmid encoding CTX-M extended-spectrum beta-lactamases in presence of beta-lactamase inhibitor Tazobactam
Escherichia coli [13] = experiment: Antimicrobial activity against Escherichia coli J53 harboring pEK204 plasmid encoding CTX-M extended-spectrum beta-lactamases in presence of beta-lactamase inhibitor Tazobactam
Escherichia coli [14] = experiment: Antimicrobial activity against Escherichia coli DH5[alpha] in presence of beta-lactamase inhibitor Tazobactam
Escherichia coli [15] = experiment: Antimicrobial activity against Escherichia coli DH5[alpha] harboring pEK516 plasmid encoding CTX-M extended-spectrum beta-lactamases in presence of beta-lactamase inhibitor Tazobactam

Row | Compound | MIC (Escherichia coli [1]) | MIC (Escherichia coli [2]) | MIC (Escherichia coli [3]) | MIC (Escherichia coli [4]) | MIC (Escherichia coli [5]) | also measured
1 | CO/N=C(\C(=O)N[C@@H]1C(=O)N2C(C(=O)[O-])=C(C[n+]3cccc4c3CCC4)CS[C@H]12)c1csc(N)n1 [CEFPIROME] | ≤ 0.125 µg/mL | > 64 µg/mL | 16 µg/mL (≈ 31.1 µM) | ≤ 0.125 µg/mL | 64 µg/mL (≈ 124 µM) | MIC (Escherichia coli [6]): ≤ 0.06 µg/mL; MIC (Escherichia coli [7]): ≤ 0.06 µg/mL
2 | CC1(C)S[C@@H]2[C@H](NC(=O)[C@H](N)c3ccc(O)cc3)C(=O)N2[C@H]1C(=O)O [AMOXICILLIN] | – | – | – | – | – | MIC (Escherichia coli [6]): 8 µg/mL; MIC (Escherichia coli [8]): 32 µg/mL; MIC (Escherichia coli [9]): 16 µg/mL; MIC (Escherichia coli [7]): 8 µg/mL; MIC (Escherichia coli [10]): 16 µg/mL
3 | COc1cc(Cc2cnc(N)nc2N)cc(OC)c1OC [TRIMETHOPRIM] | 0.06 µg/mL (≈ 0.207 µM) | > 32 µg/mL | 0.06 µg/mL (≈ 0.207 µM) | 0.06 µg/mL (≈ 0.207 µM) | 0.03 µg/mL (≈ 0.103 µM) | –
4 | C[C@@H](O)[C@H]1C(=O)N2C(C(=O)O)=C(S[C@@H]3CN[C@H](C(=O)Nc4cccc(C(=O)O)c4)C3)[C@H](C)[C@H]12 | ≤ 0.125 µg/mL | – | – | ≤ 0.125 µg/mL | – | –
5 | NC[C@H]1O[C@H](O[C@H]2[C@H](O)[C@@H](O[C@H]3O[C@H](CO)[C@@H](O)[C@H](N)[C@H]3O)[C@H](N)C[C@@H]2N)[C@H](N)C[C@@H]1O [TOBRAMYCIN] | 0.25 µg/mL (≈ 0.535 µM) | 8 µg/mL (≈ 17.1 µM) | 0.5 µg/mL (≈ 1.07 µM) | 0.5 µg/mL (≈ 1.07 µM) | 8 µg/mL (≈ 17.1 µM) | –
6 | NCC[C@H](O)C(=O)N[C@@H]1C[C@H](N)[C@@H](O[C@H]2O[C@H](CN)[C@@H](O)[C@H](O)[C@H]2O)[C@H](O)[C@H]1O[C@H]1O[C@H](CO)[C@@H](O)[C@H](N)[C@H]1O [AMIKACIN] | ≤ 0.5 µg/mL | 4 µg/mL (≈ 6.83 µM) | – | 1 µg/mL (≈ 1.71 µM) | 2 µg/mL (≈ 3.42 µM) | –
7 | CO[C@@]1(NC(=O)Cc2cccs2)C(=O)N2C(C(=O)O)=C(COC(N)=O)CS[C@@H]21 [CEFOXITIN] | 8 µg/mL (≈ 18.7 µM) | 8 µg/mL (≈ 18.7 µM) | 8 µg/mL (≈ 18.7 µM) | 8 µg/mL (≈ 18.7 µM) | 8 µg/mL (≈ 18.7 µM) | –
8 | O=C(N[C@H](CO)[C@H](O)c1ccc([N+](=O)[O-])cc1)C(Cl)Cl [CHLORAMPHENICOL] | 2 µg/mL (≈ 6.19 µM) | 2 µg/mL (≈ 6.19 µM) | 2 µg/mL (≈ 6.19 µM) | 2 µg/mL (≈ 6.19 µM) | 2 µg/mL (≈ 6.19 µM) | –
9 | CN(C)c1cc(NC(=O)CNC(C)(C)C)c(O)c2c1C[C@H]1C[C@H]3[C@H](N(C)C)C(O)=C(C(N)=O)C(=O)[C@@]3(O)C(O)=C1C2=O [TIGECYCLINE] | ≤ 0.25 µg/mL | – | – | ≤ 0.25 µg/mL | – | –
10 | CC(C)(O/N=C(\C(=O)N[C@@H]1C(=O)N2C(C(=O)[O-])=C(C[n+]3ccccc3)CS[C@H]12)c1csc(N)n1)C(=O)O [CEFTAZIDIME] | 0.25 µg/mL (≈ 0.457 µM) | 64 µg/mL (≈ 117 µM) | 2 µg/mL (≈ 3.66 µM) | 0.25 µg/mL (≈ 0.457 µM) | 16 µg/mL (≈ 29.3 µM) | MIC (Escherichia coli [6]): 0.25 µg/mL; MIC (Escherichia coli [8]): 0.5 µg/mL; MIC (Escherichia coli [9]): 0.25 µg/mL; MIC (Escherichia coli [7]): 0.25 µg/mL; MIC (Escherichia coli [10]): 0.25 µg/mL
11 | GENTAMICIN | 0.25 µg/mL | 0.25 µg/mL | 0.25 µg/mL | – | 8 µg/mL | –
12 | CCN1CCN(C(=O)N[C@@H](C(=O)N[C@@H]2C(=O)N3[C@@H]2SC(C)(C)[C@@H]3C(=O)O)c2ccccc2)C(=O)C1=O [PIPERACILLIN] | 4 µg/mL (≈ 7.73 µM) | > 64 µg/mL | > 64 µg/mL | 4 µg/mL (≈ 7.73 µM) | 64 µg/mL (≈ 124 µM) | MIC (Escherichia coli [11]): 4 µg/mL; MIC (Escherichia coli [12]): 16 µg/mL; MIC (Escherichia coli [13]): 4 µg/mL; MIC (Escherichia coli [14]): 4 µg/mL; MIC (Escherichia coli [15]): 4 µg/mL
13 | O=C(O)c1cn(C2CC2)c2cc(N3CCNCC3)c(F)cc2c1=O [CIPROFLOXACIN] | ≤ 0.125 µg/mL | – | – | ≤ 0.125 µg/mL | – | –
14 | C[C@H]1[C@H](NC(=O)/C(=N\OC(C)(C)C(=O)O)c2csc(N)n2)C(=O)N1S(=O)(=O)O [AZTREONAM] | – | > 64 µg/mL | 8 µg/mL (≈ 18.4 µM) | 0.25 µg/mL (≈ 0.574 µM) | 32 µg/mL (≈ 73.5 µM) | –
15 | CO/N=C(\C(=O)N[C@@H]1C(=O)N2C(C(=O)O)=C(COC(C)=O)CS[C@H]12)c1csc(N)n1 [CEFOTAXIME] | ≤ 0.125 µg/mL | 256 µg/mL (≈ 562 µM) | 64 µg/mL (≈ 141 µM) | 0.25 µg/mL (≈ 0.549 µM) | 128 µg/mL (≈ 281 µM) | MIC (Escherichia coli [6]): ≤ 0.06 µg/mL; MIC (Escherichia coli [8]): 0.125 µg/mL; MIC (Escherichia coli [9]): 0.125 µg/mL; MIC (Escherichia coli [7]): ≤ 0.06 µg/mL
16 | COLISTIN | < 0.5 µg/mL | < 0.5 µg/mL | < 0.5 µg/mL | < 0.5 µg/mL | < 0.5 µg/mL | –
17 | C[C@@H](O)[C@H]1C(=O)N2C(C(=O)O)=C(S[C@@H]3CN[C@H](C(=O)N(C)C)C3)[C@H](C)[C@H]12 [MEROPENEM] | ≤ 0.06 µg/mL | – | – | ≤ 0.06 µg/mL | – | –
18 | CN(C)c1ccc(O)c2c1C[C@H]1C[C@H]3[C@H](N(C)C)C(O)=C(C(N)=O)C(=O)[C@@]3(O)C(O)=C1C2=O [MINOCYCLINE] | 0.25 µg/mL (≈ 0.546 µM) | 2 µg/mL (≈ 4.37 µM) | 0.25 µg/mL (≈ 0.546 µM) | 0.25 µg/mL (≈ 0.546 µM) | 4 µg/mL (≈ 8.74 µM) | –
19 | C[C@@H](O)[C@H]1C(=O)N2C(C(=O)O)=C(SCCNC=N)C[C@H]12 [IMIPENEM ANHYDROUS] | 0.25 µg/mL (≈ 0.835 µM) | – | – | 0.5 µg/mL (≈ 1.67 µM) | – | –
20 | CC1(C)S[C@@H]2[C@H](NC(=O)[C@H](N)c3ccccc3)C(=O)N2[C@H]1C(=O)O [AMPICILLIN] | 8 µg/mL (≈ 22.9 µM) | > 64 µg/mL | > 64 µg/mL | 16 µg/mL (≈ 45.8 µM) | > 64 µg/mL | –
21 | CN[C@@H]1[C@H](O[C@H]2[C@H](O[C@H]3[C@H](O)[C@@H](O)[C@H](N=C(N)N)[C@@H](O)[C@@H]3N=C(N)N)O[C@@H](C)[C@]2(O)C=O)O[C@@H](CO)[C@H](O)[C@H]1O [STREPTOMYCIN] | 1 µg/mL (≈ 1.72 µM) | 32 µg/mL (≈ 55 µM) | 2 µg/mL (≈ 3.44 µM) | 1 µg/mL (≈ 1.72 µM) | 0.5 µg/mL (≈ 0.86 µM) | –
22 | CN(C)[C@@H]1C(O)=C(C(N)=O)C(=O)[C@@]2(O)C(O)=C3C(=O)c4c(O)cccc4[C@@](C)(O)[C@H]3C[C@@H]12 [TETRACYCLINE] | 1 µg/mL (≈ 2.25 µM) | 32 µg/mL (≈ 72 µM) | 1 µg/mL (≈ 2.25 µM) | 1 µg/mL (≈ 2.25 µM) | 32 µg/mL (≈ 72 µM) | –
23 | Cc1cc(NS(=O)(=O)c2ccc(N)cc2)no1 [SULFAMETHOXAZOLE] | 16 µg/mL (≈ 63.2 µM) | > 1020 µg/mL | 16 µg/mL (≈ 63.2 µM) | 2 µg/mL (≈ 7.9 µM) | 2 µg/mL (≈ 7.9 µM) | –
